In PubChem BioAssay (NCI):
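48-hour exposure; five concentrations; linearly interpolated endpoints. The concentration for full growth arrest is given as TGI.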

Legend:
Assay in all cases: growth of human tumour cells (NCI), 48 h
[1] = tested on: HOP-92 NSCLC
[2] = tested on: OVCAR-3 ovarian
[3] = tested on: SW-620 colon
[4] = tested on: SF-268 CNS
[5] = tested on: TK-10 renal
[6] = tested on: M19-MEL melanoma
[7] = tested on: LOX IMVI melanoma
[8] = tested on: RPMI-8226 leukemia
[9] = tested on: NCI-H226 lung
[10] = tested on: K-562 leukemia
[11] = tested on: SK-OV-3 ovarian
[12] = tested on: RXF-631 renal
[13] = tested on: 786-0 renal
[14] = tested on: HT29 colon
[15] = tested on: KM20L2 colon
[16] = tested on: HOP-62 NSCLC
[17] = tested on: SK-MEL-2 melanoma
[18] = tested on: HCC-2998 colon
[19] = tested on: SK-MEL-5 melanoma
[20] = tested on: SN12C renal
[21] = tested on: CCRF-CEM leukemia
[22] = tested on: UO-31 renal
[23] = tested on: OVCAR-5 ovarian
[24] = tested on: EKVX NSCLC
[25] = tested on: UACC-62 melanoma
[26] = tested on: HOP-18 NSCLC
[27] = tested on: MOLT-4 leukemia
[28] = tested on: SK-MEL-28 melanoma
[29] = tested on: ACHN renal
[30] = tested on: OVCAR-4 ovarian
[31] = tested on: RXF 393 renal
[32] = tested on: LXFL 529 NSCLC
[33] = tested on: U251 CNS
[34] = tested on: COLO 205 colon
[35] = tested on: SNB-19 CNS
[36] = tested on: XF 498 CNS
[37] = tested on: DLD-1 colon
[38] = tested on: M14 melanoma
[39] = tested on: A549 NSCLC
[40] = tested on: SF-539 CNS
[41] = tested on: IGROV1 ovarian
[42] = tested on: DMS 273 small cell lung
[43] = tested on: HCT-116 colon
[44] = tested on: NCI-H460 lung
[45] = tested on: DMS 114 small cell lung
[46] = tested on: KM12 colon
[47] = tested on: CAKI-1 renal
[48] = tested on: NCI-H23 lung
[49] = tested on: MALME-3M melanoma
[50] = tested on: HCT-15 colon
[51] = tested on: UACC-257 melanoma
[52] = tested on: SNB-75 CNS
[53] = tested on: NCI-H522 lung
[54] = tested on: OVCAR-8 ovarian
[55] = tested on: A498 renal
[56] = tested on: HL-60(TB) leukemia

Molecule `CC(=O)c1cccc(NC(=O)C(=O)C(C(=O)NN)c2ccccc2)c1` (stereo unspecified) has a TGI [1] greater than 100 µM, a TGI [2] greater than 100 µM and a TGI [3] greater than 100 µM. It also gave a TGI [4] greater than 100 µM, a TGI [5] greater than 100 µM and a TGI [6] greater than 100 µM. For the same molecule, the TGI [7] was greater than 100 µM, the TGI [8] was greater than 100 µM and the TGI [9] was greater than 100 µM. It also gave a TGI [10] greater than 100 µM, a TGI [11] greater than 100 µM and a TGI [12] greater than 100 µM. It also gave a TGI [13] greater than 100 µM, a TGI [14] greater than 100 µM and a TGI [15] greater than 100 µM. The TGI [16] was greater than 100 µM, the TGI [17] was greater than 100 µM and the TGI [18] was greater than 100 µM. The TGI [19] was greater than 100 µM, the TGI [20] was greater than 100 µM and the TGI [21] was greater than 100 µM. The TGI [22] was greater than 100 µM, the TGI [23] was greater than 100 µM and the TGI [24] was greater than 100 µM. The TGI [25] was greater than 100 µM, the TGI [26] was greater than 100 µM and the TGI [27] was greater than 100 µM. For the same molecule, the TGI [28] was greater than 100 µM, the TGI [29] was greater than 100 µM and the TGI [30] was greater than 100 µM. The TGI [31] was greater than 100 µM, the TGI [32] was greater than 100 µM and the TGI [33] was greater than 100 µM. It also gave a TGI [34] greater than 100 µM, a TGI [35] greater than 100 µM and a TGI [36] greater than 100 µM. For the same molecule, the TGI [37] was greater than 100 µM, the TGI [38] was greater than 100 µM and the TGI [39] was greater than 100 µM. The TGI [40] was greater than 100 µM, the TGI [41] was greater than 100 µM and the TGI [42] was greater than 100 µM. For the same molecule, the TGI [43] was greater than 100 µM, the TGI [44] was greater than 100 µM and the TGI [45] was greater than 100 µM. The TGI [46] was greater than 100 µM, the TGI [47] was greater than 100 µM and the TGI [48] was greater than 100 µM. For the same molecule, the TGI [49] was greater than 100 µM, the TGI [50] was greater than 100 µM and the TGI [51] was greater than 100 µM. The TGI [52] was greater than 100 µM, the TGI [53] was greater than 100 µM and the TGI [54] was greater than 100 µM. For the same molecule, the TGI [55] was greater than 100 µM.
Molecule `Cn1c2c(c3ccccc31)CCN(CCCN1CCN(c3cccc(Cl)c3)CC1)C2=O` has a TGI [1] of 18.7 µM, a TGI [3] greater than 100 µM and a TGI [4] greater than 100 µM. The TGI [5] was greater than 100 µM, the TGI [6] was 42.5 µM and the TGI [7] was 50.8 µM. The TGI [8] was 35 µM, the TGI [10] was 35.8 µM and the TGI [11] was greater than 100 µM. The TGI [12] was 90.7 µM, the TGI [13] was 34.5 µM and the TGI [14] was 29 µM. For the same molecule, the TGI [15] was 11.1 µM, the TGI [16] was 41.1 µM and the TGI [19] was 36.1 µM. The TGI [20] was 62.4 µM, the TGI [21] was greater than 100 µM and the TGI [22] was 32.6 µM. For the same molecule, the TGI [24] was greater than 100 µM, the TGI [25] was 39.2 µM and the TGI [26] was 83.1 µM. For the same molecule, the TGI [27] was 55.3 µM, the TGI [28] was 34.3 µM and the TGI [29] was 96.8 µM. For the same molecule, the TGI [56] was 24.2 µM, the TGI [31] was 49.7 µM and the TGI [32] was 32.2 µM. For the same molecule, the TGI [33] was 12.7 µM, the TGI [34] was 31.8 µM and the TGI [35] was 86.2 µM. It also gave a TGI [36] of 27.6 µM, a TGI [37] greater than 100 µM and a TGI [38] of 40.1 µM. The TGI [39] was greater than 100 µM, the TGI [40] was 32.1 µM and the TGI [41] was 66.1 µM. The TGI [42] was 84.5 µM, the TGI [43] was 24.8 µM and the TGI [44] was 29.9 µM. For the same molecule, the TGI [45] was 44.4 µM, the TGI [47] was 38.4 µM and the TGI [48] was 66.9 µM. The TGI [50] was greater than 100 µM, the TGI [53] was 79.9 µM and the TGI [54] was 77.4 µM. For the same molecule, the TGI [55] was 10 µM.
